Laboratory results reported in article PMC10838102 (Journal of Experimental Pharmacology, 2024).

Assays:
[1] = test system: Caco-2 cell monolayer; experiment: Caco-2 cell monolayer permeability assay with LC-MS/MS analysis; conditions: 2-hour permeability experiment
[2] = concurrent administration of 2 g of curcumin and 5 mg of piperine; cited from earlier work
[3] = with piperine; cited from earlier work

Compound: CC(C)NCC(O)COc1cccc2ccccc12 (stereo not drawn) [propranolol]
- Papp classification [1]: high

Compound: COc1cc(/C=C/C(=O)CC(=O)/C=C/c2ccc(O)c(OC)c2)ccc1O [curcumin]
- increase in curcumin's bioavailability [2]: approximately a twofold increase
- increase of bioavailability of curcumin [3]: 20 folds
